Results: patent US20170190671A1, “BIS(ARYL)CATECHOL DERIVATIVES AS HERBICIDES” (E I DU PONT DE NEMOURS AND COMPANY, priority 2014, published 2017)

Key:
Assay type in all cases: in vivo
soybean (Glycine max) = assay: Test C postemergence; settings: Glycine max, post-emergence, Postemergence, scale 0 to 100, read-out: Plant response rating, Soybean
Summary of the method: (§1)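 After preemergence treatment of seeds in loam-sand soil or foliar treatment at the 1- to 4-leaf stage of plants in peat/vermiculite medium, pots were kept 13-15 days in the greenhouse. Each was then scored visually, 0 meaning no effect and 100 complete control.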

[1] = tested on: johnsongrass (Sorghum halepense); assay: Test C postemergence; settings: Sorghum halepense, post-emergence, 336 h, Postemergence, scale 0 to 100, read-out: Plant response rating, Johnsongrass
Summary of the method: as §1

[2] = tested on: winter wheat (Triticum aestivum); assay: Test C postemergence; settings: Triticum aestivum, post-emergence, 336 h, Postemergence, scale 0 to 100, read-out: Plant response rating, Wheat
Summary of the method: as §1

[3] = tested on: barnyardgrass (Echinochloa crus-galli); assay: Test C postemergence; settings: Echinochloa crus-galli, post-emergence, Postemergence, scale 0 to 100, read-out: Plant response rating, Barnyardgrass
Summary of the method: as §1

[4] = tested on: galium (catchweed bedstraw, Galium aparine); assay: Test C postemergence; settings: Galium, post-emergence, 336 h, Postemergence, scale 0 to 100, read-out: Plant response rating, Galium
Summary of the method: as §1

[5] = tested on: large (Lg) crabgrass (Digitaria sanguinalis); assay: Test C postemergence; settings: Digitaria sanguinalis, post-emergence, 336 h, Postemergence, scale 0 to 100, read-out: Plant response rating, Crabgrass, Large
Summary of the method: as §1

[6] = tested on: Italian ryegrass (Lolium multiflorum); assay: Test C postemergence; settings: Lolium multiflorum, post-emergence, 336 h, Postemergence, scale 0 to 100, read-out: Plant response rating, Ryegrass, Italian
Summary of the method: as §1

corn (Zea mays) = assay: Test C postemergence; settings: Zea mays, post-emergence, 336 h, Postemergence, scale 0 to 100
Summary of the method: as §1

[7] = tested on: lambsquarters (Chenopodium album); assay: Test C postemergence; settings: Chenopodium album, post-emergence, 336 h, Postemergence, scale 0 to 100, read-out: Plant response rating, Lambsquarters
Summary of the method: as §1

[8] = tested on: giant foxtail (Setaria faberii); assay: Test C postemergence; settings: Setaria faberi, post-emergence, 336 h, Postemergence, scale 0 to 100, read-out: Plant response rating, Foxtail, Giant
Summary of the method: as §1

[9] = tested on: ragweed (common ragweed, Ambrosia elatior); assay: Test C postemergence; settings: Ambrosia artemisiifolia, post-emergence, 336 h, Postemergence, scale 0 to 100, read-out: Plant response rating, Ragweed
Summary of the method: as §1

[10] = tested on: chickweed (common chickweed, Stellaria media); assay: Test C postemergence; settings: Stellaria media, post-emergence, Postemergence, scale 0 to 100, read-out: Plant response rating, Chickweed
Summary of the method: as §1

[11] = tested on: yellow nutsedge (Cyperus esculentus); assay: Test C postemergence; settings: Cyperus, post-emergence, 336 h, Postemergence, scale 0 to 100, read-out: Plant response rating, Nutsedge, Yellow
Summary of the method: as §1

[12] = tested on: morningglory (Ipomoea coccinea); assay: Test C postemergence; settings: Ipomoea, post-emergence, 336 h, Postemergence, scale 0 to 100, read-out: Plant response rating, Morningglory
Summary of the method: as §1

[13] = tested on: oilseed rape (Brassica napus); assay: Test C postemergence; settings: Brassica napus, post-emergence, Postemergence, scale 0 to 100, read-out: Plant response rating, Oilseed Rape
Summary of the method: as §1

[14] = tested on: pigweed (Amaranthus retroflexus); assay: Test C postemergence; settings: Amaranthus retroflexus, post-emergence, 336 h, Postemergence, scale 0 to 100, read-out: Plant response rating, Pigweed
Summary of the method: as §1

[15] = tested on: velvetleaf (Abutilon theophrasti); assay: Test C postemergence; settings: Abutilon theophrasti, post-emergence, Postemergence, scale 0 to 100, read-out: Plant response rating, Velvetleaf
Summary of the method: as §1

[16] = tested on: blackgrass (Alopecurus myosuroides); assay: Test C postemergence; settings: Alopecurus myosuroides, post-emergence, 336 h, Postemergence, scale 0 to 100, read-out: Plant response rating, Blackgrass
Summary of the method: as §1

[17] = tested on: winter wheat (Triticum aestivum); assay: Test C preemergence; settings: Triticum aestivum, pre-emergence, 336 h, scale 0 to 100, read-out: Plant response rating, Wheat
Summary of the method: as §1

[18] = tested on: large (Lg) crabgrass (Digitaria sanguinalis); assay: Test C preemergence; settings: Digitaria sanguinalis, pre-emergence, 336 h, scale 0 to 100, read-out: Plant response rating, Crabgrass, Large
Summary of the method: as §1

[19] = tested on: giant foxtail (Setaria faberii); assay: Test C preemergence; settings: Setaria faberi, pre-emergence, 336 h, scale 0 to 100, read-out: Plant response rating, Foxtail, Giant
Summary of the method: as §1

[20] = tested on: oilseed rape (Brassica napus); assay: Test C preemergence; settings: Brassica napus, pre-emergence, scale 0 to 100, read-out: Plant response rating, Oilseed Rape
Summary of the method: as §1

Compound: Fc1cccc(Oc2ncc(Cl)cn2)c1Oc1ncc(C(F)(F)F)cn1 [Compound 43, 5-chloro-2-[5-fluoro-6-[[5-(trifluoromethyl)-2-pyrimidinyl]oxy]phenoxy]pyrimidine]
- plant injury at 31 g/ha (soybean (Glycine max); 31 g ai/ha): 55%
- plant injury at 62 g/ha (soybean (Glycine max); 62 g ai/ha): 75%
- plant injury at 125 g/ha (soybean (Glycine max); 125 g ai/ha): 70%
- pest or weed control at 16 g/ha ([1]; 16 g ai/ha): 0%
- pest or weed control at 31 g/ha ([1]; 31 g ai/ha): 5%
- pest or weed control at 62 g/ha ([1]; 62 g ai/ha): 10%
- pest or weed control at 125 g/ha ([1]; 125 g ai/ha): 45%
- plant injury at 31 g/ha ([2]; 31 g ai/ha): 0%
- plant injury at 62 g/ha ([2]; 62 g ai/ha): 0%
- plant injury at 125 g/ha ([2]; 125 g ai/ha): 5%
- pest or weed control at 16 g/ha ([3]; 16 g ai/ha): 5%
- pest or weed control at 31 g/ha ([3]; 31 g ai/ha): 5%
- pest or weed control at 62 g/ha ([3]; 62 g ai/ha): 10%
- pest or weed control at 125 g/ha ([3]; 125 g ai/ha): 35%
- pest or weed control at 16 g/ha ([4]; 16 g ai/ha): 35%
- pest or weed control at 31 g/ha ([4]; 31 g ai/ha): 80%
- pest or weed control at 62 g/ha ([4]; 62 g ai/ha): 85%
- pest or weed control at 125 g/ha ([4]; 125 g ai/ha): 90%
- pest or weed control at 16 g/ha ([5]; 16 g ai/ha): 5%
- pest or weed control at 31 g/ha ([5]; 31 g ai/ha): 5%
- pest or weed control at 62 g/ha ([5]; 62 g ai/ha): 10%
- pest or weed control at 125 g/ha ([5]; 125 g ai/ha): 40%
- pest or weed control at 31 g/ha ([6]; 31 g ai/ha): 0%
- pest or weed control at 62 g/ha ([6]; 62 g ai/ha): 10%
- pest or weed control at 125 g/ha ([6]; 125 g ai/ha): 15%
- Corn plant response rating (crop injury, 0 = no effect, 100 = complete kill) at 16 g/ha (corn (Zea mays); 16 g ai/ha): 5%
- Corn plant response rating (crop injury, 0 = no effect, 100 = complete kill) at 31 g/ha (corn (Zea mays); 31 g ai/ha): 5%
- Corn plant response rating (crop injury, 0 = no effect, 100 = complete kill) at 62 g/ha (corn (Zea mays); 62 g ai/ha): 5%
- Corn plant response rating (crop injury, 0 = no effect, 100 = complete kill) at 125 g/ha (corn (Zea mays); 125 g ai/ha): 5%
- pest or weed control at 16 g/ha ([7]; 16 g ai/ha): 60%
- pest or weed control at 31 g/ha ([7]; 31 g ai/ha): 80%
- pest or weed control at 62 g/ha ([7]; 62 g ai/ha): 90%
- pest or weed control at 125 g/ha ([7]; 125 g ai/ha): 95%
- pest or weed control at 16 g/ha ([8]; 16 g ai/ha): 5%
- pest or weed control at 31 g/ha ([8]; 31 g ai/ha): 5%
- pest or weed control at 62 g/ha ([8]; 62 g ai/ha): 15%
- pest or weed control at 125 g/ha ([8]; 125 g ai/ha): 35%
- pest or weed control at 31 g/ha ([9]; 31 g ai/ha): 75%
- pest or weed control at 62 g/ha ([9]; 62 g ai/ha): 65%
- pest or weed control at 125 g/ha ([9]; 125 g ai/ha): 80%
- pest or weed control at 16 g/ha ([10]; 16 g ai/ha): 40%
- pest or weed control at 31 g/ha ([10]; 31 g ai/ha): 70%
- pest or weed control at 62 g/ha ([10]; 62 g ai/ha): 70%
- pest or weed control at 125 g/ha ([10]; 125 g ai/ha): 100%
- pest or weed control at 31 g/ha ([11]; 31 g ai/ha): 0%
- pest or weed control at 62 g/ha ([11]; 62 g ai/ha): 0%
- pest or weed control at 125 g/ha ([11]; 125 g ai/ha): 5%
- pest or weed control at 31 g/ha ([12]; 31 g ai/ha): 85%
- pest or weed control at 62 g/ha ([12]; 62 g ai/ha): 80%
- pest or weed control at 125 g/ha ([12]; 125 g ai/ha): 80%
- plant injury at 31 g/ha ([13]; 31 g ai/ha): 50%
- plant injury at 62 g/ha ([13]; 62 g ai/ha): 65%
- plant injury at 125 g/ha ([13]; 125 g ai/ha): 50%
- pest or weed control at 31 g/ha ([14]; 31 g ai/ha): 85%
- pest or weed control at 62 g/ha ([14]; 62 g ai/ha): 90%
- pest or weed control at 125 g/ha ([14]; 125 g ai/ha): 98%
- pest or weed control at 31 g/ha ([15]; 31 g ai/ha): 55%
- pest or weed control at 62 g/ha ([15]; 62 g ai/ha): 75%
- pest or weed control at 125 g/ha ([15]; 125 g ai/ha): 85%
- pest or weed control at 16 g/ha ([16]; 16 g ai/ha): 0%
- pest or weed control at 31 g/ha ([16]; 31 g ai/ha): 30%
- pest or weed control at 62 g/ha ([16]; 62 g ai/ha): 75%
- pest or weed control at 125 g/ha ([16]; 125 g ai/ha): 95%
- plant injury at 31 g/ha ([17]; 31 g ai/ha, preemergence): 25%
- plant injury at 62 g/ha ([17]; 62 g ai/ha, preemergence): 40%
- plant injury at 125 g/ha ([17]; 125 g ai/ha, preemergence): 90%
- plant injury at 16 g/ha ([17]; Preemergence, 16 g ai/ha): 5%
- pest or weed control at 31 g/ha ([18]; 31 g ai/ha, preemergence): 100%
- pest or weed control at 62 g/ha ([18]; 62 g ai/ha, preemergence): 100%
- pest or weed control at 125 g/ha ([18]; 125 g ai/ha, preemergence): 100%
- pest or weed control at 16 g/ha ([18]; Preemergence, 16 g ai/ha): 100%
- pest or weed control at 31 g/ha ([19]; 31 g ai/ha, preemergence): 100%
- pest or weed control at 62 g/ha ([19]; 62 g ai/ha, preemergence): 100%
- pest or weed control at 125 g/ha ([19]; 125 g ai/ha, preemergence): 100%
- pest or weed control at 16 g/ha ([19]; Preemergence, 16 g ai/ha): 95%
- plant injury at 31 g/ha ([20]; 31 g ai/ha, preemergence): 100%
- plant injury at 62 g/ha ([20]; 62 g ai/ha, preemergence): 100%
- plant injury at 125 g/ha ([20]; 125 g ai/ha, preemergence): 100%
- plant injury at 16 g/ha ([20]; Preemergence, 16 g ai/ha): 95%
